PubChem BioAssay AID330 (DTP/NCI, 2004)
“And” between values parts separate entries of the source, which are not always exact repeats. Identical values can stand only once. Toxic doses and inconclusive results are not listed. The calls were made as follows: active = survival T/C of 150% or more; inactive = T/C below 125% in these data.

System: P388 leukemia ip, CD2F1 mice, survival T/C
Test: NCI In Vivo Anticancer Drug Screen. Data for tumor model P388 Leukemia (intraperitoneal) in CD2F1 (CDF1) mice
Conditions: endpoint: median survival time, higher = longer survival
In short: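 Mice carrying the transplanted tumor received test compound or vehicle. Survival was recorded in each group, and the value is the treated-group measurement divided by that of the vehicle-treated control group.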

[1] = dose: 50.0 mg/kg/injection, schedule: Q01DX005 (ip), vehicle: saline with Tween-80
[2] = dose: 100.0 mg/kg/injection, schedule: Q01DX005 (ip), vehicle: saline with Tween-80
[3] = dose: 200.0 mg/kg/injection, schedule: Q01DX005 (ip), vehicle: saline with Tween-80

Measured: T/C

NC(=O)Nc1cc2oc(=O)[nH]c2cc1Cl
inactive: [1] 94 % of control | [2] 95 % of control | [3] 90 % of control

COc1ccc(OC)c(CC(CC(=O)O)C(C)=O)c1 (stereo not drawn)
inactive: dose: 25.0 mg/kg/injection, schedule: Q01DX009 (ip), vehicle: other 97 % of control | dose: 50.0 mg/kg/injection, schedule: Q01DX009 (ip), vehicle: other 100 % of control | dose: 100.0 mg/kg/injection, schedule: Q01DX009 (ip), vehicle: other 100 % of control | dose: 200.0 mg/kg/injection, schedule: Q01DX009 (ip), vehicle: other 101 % of control | dose: 400.0 mg/kg/injection, schedule: Q01DX009 (ip), vehicle: other 108 % of control

O=C(CCCc1ccc(N2C(=O)C=CC2=O)cc1)ON1C(=O)CCC1=O
inactive: dose: 12.5 mg/kg/injection, schedule: Q04DX002 (ip), vehicle: saline with Tween-80 105 % of control | dose: 25.0 mg/kg/injection, schedule: Q04DX002 (ip), vehicle: saline with Tween-80 104 % of control

CC(=O)NC(CSC(c1ccccc1)c1ccccc1)C(C)=O (stereo not drawn)
inactive: dose: 100.0 mg/kg/injection, schedule: Q04DX003 (ip), vehicle: saline with Tween-80 103 % of control | dose: 200.0 mg/kg/injection, schedule: Q04DX003 (ip), vehicle: saline with Tween-80 106 % of control | dose: 400.0 mg/kg/injection, schedule: Q04DX003 (ip), vehicle: saline with Tween-80 113 % of control

CCOC(=O)c1sc(=S)n(C(C)C)c1C
inactive: dose: 12.5 mg/kg/injection, schedule: Q01DX005 (ip), vehicle: saline with Tween-80 101 % of control | dose: 25.0 mg/kg/injection, schedule: Q01DX005 (ip), vehicle: saline with Tween-80 101 % of control | [1] 101 % of control and 102 % of control | [2] 100 % of control | [3] 98 % of control
